Assay results: patent US9491944B2, “Pesticidal compositions and related methods” (DOW AGROSCIENCES LLC, priority 2013, dated 2016)

Experiments:
[1] = system: Sweetpotato Whitefly-Crawler (WF) (Bemisia tabaci) (BEMITA); experiment: Insecticidal test for Sweetpotato Whitefly-crawler (WF) in foliar spray assay on cotton plants; format: in vivo; conditions: 216 h, 200 ppm foliar spray on cotton plants, graded after 9 days, Abbott corrected % control, read-out: WF % Control (or Mortality) rating
Protocol: Insecticidal Test for Sweetpotato Whitefly-Crawler (WF) (Bemisia tabaci) (BEMITA) in Foliar Spray Assay
Cotton plants (Gossypium hirsutum) grown in 3-inch pots, with 1 small (4-5 cm) true leaves, were used as test substrate. The plants were infested with 200-400 whitefly eggs 4-5 days prior to chemical application. Four pots with individual plants were used for each treatment. Test compounds (2 mg) were dissolved in 1 mL of acetone solvent, forming stock solutions of 2000 ppm test compound. The stock solutions were diluted 10× with 0.025% Tween 20 in H2O (diluents) to obtain the solution at 200 ppm test compound. A hand-held aspirator-type sprayer was used for spraying a solution to both sides of cotton leaves until runoff. Reference plants (solvent check) were sprayed with the diluent only containing 10% by volume of acetone solvent. Treated plants were held in a holding room for 9 days at approximately 25° C. and ambient relative humidity (RH) prior to grading. Evaluation was conducted by counting the number of live 3-4 nymph stage per plant under a microscope. Percent control was measured by using Abbott's correction formula (W. S. Abbott, “A Method of Computing the Effectiveness of an Insecticide,” J. Econ. Entomol. 18 (1925), pp. 265-267) as follows. Corrected % Control=100*(X−Y)/X
X=No. of live nymphs on solvent check plants and
Y=No. of live nymphs on treated plants.
Biological Data for Green Peach Aphid (MYZUPE) and Sweetpotato Whitefly-crawler (WF) (BEMITA)” (see Table section).
(§1) The mortality efficiency of the pesticidal compounds against GPA and WF insects was determined after treatment.

[2] = system: Green Peach Aphid (Myzus persicae) (GPA) (MYZUPE); experiment: Bioassay for Green Peach Aphid (GPA) foliar spray on cabbage seedlings; format: in vivo; conditions: 72 h, 200 ppm foliar spray on cabbage seedlings, graded after three days, Abbott corrected % control, read-out: GPA % Control (or Mortality) rating
Protocol: Bioassay for Green Peach Aphid (Myzus persicae) (GPA) (MYZUPE)
Cabbage seedlings grown in 3-inch pots, with 2-3 small (3-5 cm) true leaves, were used as test substrate. The seedlings were infested with 20-50 GPA (wingless adult and nymph stages) one day prior to chemical application. Four pots with individual seedlings were used for each treatment. Test compounds (2 mg) were dissolved in 2 mL of acetone/methanol (1:1) solvent, forming stock solutions of 1000 ppm test compound. The stock solutions were diluted 5× with 0.025% Tween 20 in H2O to obtain the solution at 200 ppm test compound. A hand-held aspirator-type sprayer was used for spraying a solution to both sides of cabbage leaves until runoff Reference plants (solvent check) were sprayed with the diluent only containing 20% by volume of acetone/methanol (1:1) solvent. Treated plants were held in a holding room for three days at approximately 25° C. and ambient relative humidity (RH) prior to grading. Evaluation was conducted by counting the number of live aphids per plant under a microscope. Percent control was measured by using Abbott's correction formula (W. S. Abbott, “A Method of Computing the Effectiveness of an Insecticide,” J. Econ. Entomol. 18 (1925), pp. 265-267) as follows Corrected % Control=100*(X−Y)/X
X=No. of live aphids on solvent check plants and
Y=No. of live aphids on treated plants.
Biological Data for Green Peach Aphid (GPA) (MYZUPE) and Sweetpotato Whitefly-crawler (WF) (BEMITA)” (see Table section).
as §1

Work on FC(F)(F)c1cccc(-c2cn(-c3cccnc3)nn2)n1 [Compound F7, 2-[1-(pyridin-3-yl)-1H-1,2,3-triazol-4-yl]-6-(trifluoromethyl) pyridine] yielded a mortality at 200 ppm [1] of 80 to 100% and a mortality at 200 ppm [2] of 80 to 100%.
For CSc1cccc(-c2cn(-c3cccnc3)nn2)c1 [Compound F3], the mortality at 200 ppm [1] was < 0% and the mortality at 200 ppm [2] was 80 to 100%.
Clc1ccccc1-c1cn(-c2cccnc2)nn1 [Compound F1] showed a mortality at 200 ppm [1] of 0 to 80% and a mortality at 200 ppm [2] of 0 to 80%.
Work on COc1cccc(-c2cn(-c3cccnc3)nn2)n1 [Compound F5, 2-Methoxy-6-[1-(pyridin-3-yl)-1H-1,2,3-triazol-4-yl]pyridine] yielded a mortality at 200 ppm [1] of 0 to 80% and a mortality at 200 ppm [2] of 80 to 100%.
Compound Cc1ccc(-c2cn(-c3cccnc3)nn2)nc1 [Compound F4, 5-Methyl-2-[1-(pyridin-3-yl)-1H-1,2,3-triazol-4-yl]pyridine] has a mortality at 200 ppm [1] of 80 to 100% and a mortality at 200 ppm [2] of 80 to 100%.
In the case of Clc1cccc(-c2cn(-c3cccnc3)nn2)c1 [Compound F11], the mortality at 200 ppm [1] is reported as < 0% and the mortality at 200 ppm [2] is reported as 0 to 80%.
Brc1cccc(-c2cn(-c3cccnc3)nn2)n1 [Compound F9, 2-Bromo-6-[1-(pyridin-3-yl)-1H-1,2,3-triazol-4-yl]pyridine] was tested, and the mortality at 200 ppm [1] was 0 to 80% and the mortality at 200 ppm [2] was 80 to 100%.
For Cc1cccc(-c2cn(-c3cccnc3)nn2)n1 [Compound F12, 2-methyl-6-(1-(pyridin-3-yl)-1H-1,2,3-triazol-4-yl)pyridine], the mortality at 200 ppm [1] was 80 to 100% and the mortality at 200 ppm [2] was 80 to 100%.
In the case of FC(F)(F)c1cccc(-c2cn(-c3cccnc3)nn2)c1 [Compound F13], the mortality at 200 ppm [1] is reported as < 0% and the mortality at 200 ppm [2] is reported as 80 to 100%.
FC(F)(F)c1ccc(-c2cn(-c3cccnc3)nn2)nc1 [Compound F8, 2-[1-(Pyridin-3-yl)-1H-1,2,3-triazol-4-yl]-5-(trifluoromethyl)pyridine] showed a mortality at 200 ppm [1] of 80 to 100% and a mortality at 200 ppm [2] of 80 to 100%.
In the case of FC(F)(F)Oc1cccc(-c2cn(-c3cccnc3)nn2)c1 [Compound F6, 3-(4-(3-(trifluoromethoxy)phenyl)-1H-1,2,3-triazol-1-yl)pyridine], the mortality at 200 ppm [1] is reported as 0 to 80% and the mortality at 200 ppm [2] is reported as 80 to 100%.
Clc1cccc(-c2cn(-c3cccnc3)nn2)n1 [Compound F10, 2-Chloro-6-[1-(pyridin-3-yl)-1H-1,2,3-triazol-4-yl]pyridine] showed a mortality at 200 ppm [1] of 0 to 80% and a mortality at 200 ppm [2] of 80 to 100%.
FC(F)(F)c1ccc(-c2cn(-c3cccnc3)nn2)cn1 [Compound F2, 5-[1-(Pyridin-3-yl)-1H-1,2,3-triazol-4-yl]-2-(trifluoromethyl)pyridine] was tested, and the mortality at 200 ppm [1] was 0 to 80% and the mortality at 200 ppm [2] was 80 to 100%.
